This experiment addresses T1, purified STEP46 enzyme (Homo sapiens, UniProt P54829).
T1 sequence (P54829 1-565): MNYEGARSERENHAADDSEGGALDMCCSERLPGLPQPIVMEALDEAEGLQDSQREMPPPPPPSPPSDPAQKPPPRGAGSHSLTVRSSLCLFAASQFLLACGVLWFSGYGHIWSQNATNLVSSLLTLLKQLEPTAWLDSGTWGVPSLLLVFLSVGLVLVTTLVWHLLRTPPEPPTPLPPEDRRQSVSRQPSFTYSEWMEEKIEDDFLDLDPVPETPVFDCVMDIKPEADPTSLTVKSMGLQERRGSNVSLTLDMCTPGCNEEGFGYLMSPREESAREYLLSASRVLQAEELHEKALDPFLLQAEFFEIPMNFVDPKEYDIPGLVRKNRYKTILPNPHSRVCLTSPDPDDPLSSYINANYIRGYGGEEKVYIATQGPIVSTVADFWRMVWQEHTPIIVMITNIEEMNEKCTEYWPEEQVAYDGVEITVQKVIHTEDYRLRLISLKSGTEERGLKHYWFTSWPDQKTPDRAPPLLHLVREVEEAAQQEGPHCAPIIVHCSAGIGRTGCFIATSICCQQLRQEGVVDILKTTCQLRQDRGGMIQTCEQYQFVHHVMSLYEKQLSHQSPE
Description: STEP46 biochemical assay (DiFMUP fluorescence phosphatase assay). The conditions noted are these: DiFMUP 10 μM, read-out: STEP IC50. A digest of the protocol: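 Compounds preincubated 30 min at room temperature with purified STEP46 (1 ng/well) in 50 mM Hepes, 1 mM DTT, 0.02% Brij35, then 10 μM DiFMUP (final) added for 90 min at 27 °C; 2% DMSO, fluorescence at 360/460 nm. IC50 from four-parameter fit of % inhibition; activators reported as negative % inhibition at 25, 50 and 100 uM.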
Usually IC50 stands for the concentration that inhibits the measured activity by half. Take `CNc1nc(-c2cccnc2)nc2c(C)c(-c3ccccc3)ccc12` [Compound 1454]: the IC50 is above 10000 nM. Take `Clc1ccc2c(Nc3ccc(Cl)c(Cl)c3)nc(-c3cnccn3)nc2c1` [Compound 1140]: the IC50 is below 1000 nM. For `Fc1ccc(-c2ccc3nc(-c4cccnc4)nc(Nc4ccc(F)c(Cl)c4)c3c2)c(F)c1` [Compound 671], the IC50 was in the range of 1000 to 10000 nM.

In the case of `CNc1nc(-c2cccnc2)nc2ccc(-c3cccc(OCCOC)c3)cc12` [Compound 1680, 6-(3-(2-methoxyethoxyl)phenyl)-N-methyl-2-(pyridin-3-yl)quinazolin-4-amine], the IC50 was 1000 to 10000 nM. For `COc1ccc2nc(-c3cccnc3)nc(Nc3cccc(-c4ccc(Cl)cc4)c3)c2c1` [Compound 427], the IC50 lay in the range of 1000 to 10000 nM.

As to `Fc1cccc(-c2ccc3nc(-c4cccnc4)nc(NC4CCCCC4)c3c2)c1F` [Compound 1516], the IC50 was above 10000 nM. In the case of `COc1cc(Cl)cc(-c2ccc3nc(-c4cccnc4)nc(Nc4ccc(F)c(Cl)c4)c3c2)c1` [Compound 663], the IC50 is below 1000 nM. Regarding `Clc1ccc(Nc2nc(-c3ccnnc3)nc3ccccc23)cc1Cl` [Compound 1215], the IC50 is below 1000 nM.

In the case of `CNc1nc(-c2cccnc2)nc2cc(-c3ccc(F)c(F)c3)c(C)cc12` [Compound 1407], the IC50 lay in the range of 1000 to 10000 nM. As for `CNc1nc(-c2cccnc2)nc2c(C)c(-c3ccc(C#N)cc3)ccc12` [Compound 1452], the IC50 was below 1000 nM. In the case of `Cc1ccc(-c2ccc3c(Nc4ccc(F)c(Cl)c4)nc(-c4cccnc4)nc3c2)cc1` [Compound 695], the IC50 was below 1000 nM. On to `Fc1ccc(Nc2nc(-c3cnccn3)nc3ccccc23)cc1Cl` [Compound 1219], for which the IC50 lay within 1000 to 10000 nM. On to `N#Cc1ccccc1-c1ccc2c(Nc3ccc(F)c(Cl)c3)nc(-c3cccnc3)nc2c1` [Compound 685], for which the IC50 was below 1000 nM.

For the compound `N#Cc1cccc(Nc2nc(-c3ccnnc3)nc3ccccc23)c1` [Compound 1217], the IC50 was in the range of 1000 to 10000 nM. Turning to `COc1cccc(-c2ccc3nc(-c4cccnc4)nc(Oc4ccc(F)c(F)c4)c3c2)c1` [Compound 392], the IC50 fell in the range of 1000 to 10000 nM.

Turning to `COc1ccc2nc(-c3cccnc3)nc(Nc3cccc(-c4ccccc4)c3)c2c1` [Compound 426], the IC50 was above 10000 nM. The same measure for `Fc1ccc(-c2ccc3nc(-c4cccnc4)nc(Nc4ccc(F)c(Cl)c4)c3c2)cc1F` [Compound 672]: 1000 to 10000 nM; for `CNc1nc(-c2cccnc2)nc2c(C)cc(-c3ccc(C#N)cc3)cc12` [Compound 1279]: 1000 to 10000 nM. `FC(F)Oc1cccc(Nc2nc(-c3ccnnc3)nc3cc(Cl)ccc23)c1` [Compound 1200]: the IC50 lay in the range of 1000 to 10000 nM. The result for `CNc1nc(-c2cccnc2)nc2cc(C)c(-c3ccc(F)cc3F)cc12` [Compound 1415] reads above 10000 nM; that for `CNc1nc(-c2cccnc2)nc2cc(-c3ccccc3Cl)ccc12` [Compound 1352], above 10000 nM; that for `COc1ccc2nc(-c3ccnnc3)nc(Nc3ccc(F)c(Cl)c3)c2c1` [Compound 1185], 1000 to 10000 nM. The result for `COc1ccc2nc(-c3cccnc3)nc(Nc3nc(-c4ccc(OC(F)(F)F)cc4)cs3)c2c1` [Compound 442] reads below 1000 nM. The result for `Fc1ccc(Nc2nc(-c3cccnc3)nc3ccc(-c4cccs4)cc23)cc1Cl` [Compound 649] reads 1000 to 10000 nM; that for `CNc1nc(-c2cccnc2)nc2cc(-c3cccc(C#N)c3)ccc12` [Compound 1364], 1000 to 10000 nM; that for `COc1ccc2nc(-c3cccnc3)nc(Nc3ccc4sc(=O)[nH]c4c3)c2c1` [Compound 326], 1000 to 10000 nM. In the case of `CNc1nc(-c2cccnc2)nc2cc(-c3cccc(Cl)c3)ccc12` [Compound 1353], the IC50 lay within 1000 to 10000 nM. In the case of `NC(=O)c1ccccc1Nc1nc(-c2cccnc2)nc2cc(-c3cc(F)cc(F)c3)ccc12` [Compound 707], the IC50 was below 1000 nM. The result for `COc1ccc2nc(-c3cccnc3)nc(Nc3c(F)cccc3Cl)c2c1` [Compound 934] reads below 1000 nM; that for `COc1ccc2nc(-c3cccnc3)nc(Nc3ccccc3Br)c2c1` [Compound 437], 1000 to 10000 nM. The result for `COc1ccc2nc(-c3ccnnc3)nc(Nc3cccc(OC(F)(F)F)c3)c2c1` [Compound 1188] reads 1000 to 10000 nM; that for `CNc1nc(-c2cccnc2)nc2cc(-c3cc(F)ccc3F)ccc12` [Compound 1601], 1000 to 10000 nM. Turning to `O=c1ccc2ccc(Nc3nc(-c4cccnc4)nc4ccc(-c5cccnc5)cc34)cc2[nH]1` [Compound 352], the half-maximal inhibitory concentration (IC50) is 1000 to 10000 nM.

For `Cc1cc(Cl)cc2c(Nc3cc(Cl)cc(Cl)c3)nc(-c3cnccn3)nc12` [Compound 1229], the IC50 lay in the range of 1000 to 10000 nM. For `Fc1ccc(Nc2nc(-c3cccnc3)nc3ccc(-c4ccccc4F)cc23)cc1Cl` [Compound 641], the IC50 was below 1000 nM. With `CN(C)c1nc(-c2cccnc2)nc2ccc(-c3ccccc3C#N)cc12` [Compound 1337], the IC50 lay within 1000 to 10000 nM. As to `CN(C)c1cccc(-c2ccc3nc(-c4cccnc4)nc(Nc4ccc(F)c(Cl)c4)c3c2)c1` [Compound 643], the IC50 was below 1000 nM. On to `CCOc1ccc2nc(-c3cncnc3)nc(Nc3ccccc3C(N)=O)c2c1` [Compound 1171], for which the IC50 is 1000 to 10000 nM. As to `COc1cncc(-c2ccc3nc(-c4cccnc4)nc(Nc4ccc(F)c(Cl)c4)c3c2)c1` [Compound 660], the 50% inhibitory concentration (IC50) is below 1000 nM. As to `Cc1cc(Cl)cc2c(Nc3ccccc3C(=O)O)nc(-c3cnccn3)nc12` [Compound 1227], the IC50 lay within 1000 to 10000 nM. As to `CNC(=O)c1ccc(-c2ccc3nc(-c4cccnc4)nc(Nc4ccc(F)c(Cl)c4)c3c2)cc1` [Compound 667], the IC50 was below 1000 nM. Turning to `CNc1nc(-c2cccnc2)nc2ccc(-c3csc4ccccc34)cc12` [Compound 1339], the IC50 lay in the range of 1000 to 10000 nM.

In the case of `COc1ccc2nc(-c3cccnc3)nc(Nc3cccc(Br)c3)c2c1` [Compound 425], the IC50 lay in the range of 1000 to 10000 nM.

For the compound `COc1ccc2nc(-c3cccnc3)nc(Nc3ccc4ccc(=O)[nH]c4c3C)c2c1` [Compound 343], the IC50 is above 10000 nM. As to `Fc1ccc(Nc2nc(-c3cccnc3)nc3ccc(-c4ccncc4)cc23)cc1Cl` [Compound 651], the IC50 was below 1000 nM. Take `NC(=O)c1ccccc1Nc1nc(-c2cccnc2)nc2cc(Br)ccc12` [Compound 699]: the IC50 was below 1000 nM. Take `COc1ccc2nc(-c3cccnc3)nc(Nc3nc(-c4ccccc4)cs3)c2c1` [Compound 416]: the IC50 is below 1000 nM.

For the compound `COc1ccc2nc(-c3cccnc3)nc(Nc3nc(-c4cc(F)ccc4F)cs3)c2c1` [Compound 458], the IC50 was below 1000 nM. As to `CNc1nc(-c2cccnc2)nc2ccc(-c3ccc(OC)cc3)c(C)c12` [Compound 1458], the IC50 was above 10000 nM. Take `CCOc1ccc2nc(-c3cccnc3)nc(Nc3ccc4ccsc4c3)c2c1` [Compound 315]: the IC50 was 1000 to 10000 nM.

In the case of `COc1cccc(-c2ccc3nc(-c4cccnc4)nc(Oc4ccc(Cl)c(Cl)c4)c3c2)c1` [Compound 391], the IC50 fell in the range of 1000 to 10000 nM.

As to `CNc1nc(-c2cccnc2)nc2cc(-c3cc(F)cc(F)c3)c(C)cc12` [Compound 1408], the IC50 lay in the range of 1000 to 10000 nM. As to `CNc1nc(-c2cccnc2)nc2c(C)c(-c3cccc(C#N)c3)ccc12` [Compound 1453], the IC50 was in the range of 1000 to 10000 nM.

Consider `CNc1nc(-c2cccnc2)nc2cc(-c3ccccc3F)c(C)cc12` [Compound 1403], for which the IC50 was above 10000 nM. For the compound `Clc1cc(Cl)cc(Nc2nc(-c3cnccn3)nc3ccc(Cl)cc23)c1` [Compound 1161], the IC50 lay in the range of 1000 to 10000 nM.

As for `Fc1ccc(Nc2nc(-c3cccnc3)nc3ccc(-c4ccccc4Cl)cc23)cc1Cl` [Compound 636], the IC50 is above 10000 nM. The same measure for `CNc1nc(-c2cccnc2)nc2ccc(-c3cc(OC)ccc3OC)cc12` [Compound 1356]: 1000 to 10000 nM; for `CNc1nc(-c2cccnc2)nc2cc(-c3ccccc3C#N)ccc12` [Compound 1363]: 1000 to 10000 nM. Consider `COc1cccc(-c2ccc3nc(-c4cccnc4)nc(Oc4ccccc4C(N)=O)c3c2)c1` [Compound 393], for which the IC50 fell in the range of 1000 to 10000 nM. With `COc1ncc(-c2ccc3c(Nc4ccc(F)c(Cl)c4)nc(-c4cccnc4)nc3c2)cn1` [Compound 679], the IC50 is below 1000 nM.

Consider `Fc1ccc(Nc2nc(-c3cccnc3)nc3ccc(-c4ccoc4)cc23)cc1Cl` [Compound 647], for which the IC50 was in the range of 1000 to 10000 nM. Regarding `CNc1nc(-c2cccnc2)nc2cc(C)c(-c3ccc(OC)cc3)cc12` [Compound 1420], the IC50 was in the range of 1000 to 10000 nM.

In the case of `CCOc1ccc2nc(-c3cccnc3)nc(Nc3nc(-c4ccc(F)c(F)c4)cs3)c2c1` [Compound 468], the IC50 is below 1000 nM. As for `COc1cccc(-c2ccc3c(Nc4ccc(F)c(Cl)c4)nc(-c4cccnc4)nc3c2)c1` [Compound 681], the IC50 was in the range of 1000 to 10000 nM. For `CNc1nc(-c2cccnc2)nc2cc(-c3ccccc3)ccc12` [Compound 1348], the IC50 was above 10000 nM. The same measure for `COc1ccc2nc(-c3cnccn3)nc(Nc3cccc(C#N)c3)c2c1` [Compound 1193]: 1000 to 10000 nM. In the case of `Cc1cccc(-c2ccc3nc(-c4cccnc4)nc(Nc4ccc(F)c(Cl)c4)c3c2)c1` [Compound 632], the IC50 is below 1000 nM.

The values are drawn from patent US9630947B2, “Therapeutic compounds and related methods of use” (OTSUKA PHARMACEUTICAL CO., LTD., priority 2009, dated 2017).
